Laboratory results as given in the supplement of paper PMC5908809.

What was measured:
[1] = tested on: normal NK cells expanded with K562-aAPC; assay: percent inhibition of viability; higher = more inhibition; settings: 72 h, IL-2 2.5 ng/mL
Description: (§1)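 Drug sensitivity and resistance testing on K562-aAPC-expanded normal NK cells: 5 concentrations (10-fold steps over a 10,000-fold range), 72 h at 37 °C, viability by CellTiter-Glo normalised to DMSO and benzethonium chloride controls; DSS from the fitted curve.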

DERL-7 (IL-2 2.5 ng/mL) [2] = assay: as above; settings: 72 h
IMC-1 (IL-2 20 ng/mL) [3] = assay: as above; settings: 72 h
KAI3 (IL-2 2.5 ng/mL) [4] = assay: as above; settings: 72 h
KHYG-1 (IL-2 2.5 ng/mL) [5] = assay: as above; settings: 72 h
NK-92 (IL-2 2.5 ng/mL) [6] = assay: as above; settings: 72 h
NK-YS (IL-2 2.5 ng/mL) [7] = assay: as above; settings: 72 h
NKL (IL-2 2.5 ng/mL) [8] = assay: as above; settings: 72 h
SNK-6 (IL-2 2.5 ng/mL) [9] = assay: as above; settings: 72 h
YT (IL-2 2.5 ng/mL) [10] = assay: as above; settings: 72 h
[11] = tested on: normal primary NK cells, pool 1 (3 donors) (IL-2 2.5 ng/mL); assay: as above; settings: 72 h
[12] = tested on: normal primary NK cells, pool 1 (3 donors), resting (IL-2 0 ng/mL); assay: as above; settings: 72 h
[13] = tested on: normal primary NK cells, pool 2 (3 donors) (IL-2 2.5 ng/mL); assay: as above; settings: 72 h
[14] = tested on: normal primary NK cells, pool 3 (3 donors) (IL-2 2.5 ng/mL); assay: as above; settings: 72 h
[15] = tested on: normal NK cells expanded with K562-aAPC; assay: drug sensitivity score (DSS) (DSS units); higher = more sensitive; extreme values may be limits of the assay; settings: 72 h; IL-2 2.5 ng/mL
Description: as §1

DERL-7 (IL-2 2.5 ng/mL) [16] = assay: as above; settings: 72 h
IMC-1 (IL-2 20 ng/mL) [17] = assay: as above; settings: 72 h
KAI3 (IL-2 2.5 ng/mL) [18] = assay: as above; settings: 72 h
KHYG-1 (IL-2 2.5 ng/mL) [19] = assay: as above; settings: 72 h
NK-92 (IL-2 2.5 ng/mL) [20] = assay: as above; settings: 72 h
NK-YS (IL-2 2.5 ng/mL) [21] = assay: as above; settings: 72 h
NKL (IL-2 2.5 ng/mL) [22] = assay: as above; settings: 72 h
SNK-6 (IL-2 2.5 ng/mL) [23] = assay: as above; settings: 72 h
YT (IL-2 2.5 ng/mL) [24] = assay: as above; settings: 72 h
[25] = tested on: normal primary NK cells, pool 1 (3 donors) (IL-2 2.5 ng/mL); assay: as above; settings: 72 h
[26] = tested on: normal primary NK cells, pool 1 (3 donors), resting (IL-2 0 ng/mL); assay: as above; settings: 72 h
[27] = tested on: normal primary NK cells, pool 2 (3 donors) (IL-2 2.5 ng/mL); assay: as above; settings: 72 h
[28] = tested on: normal primary NK cells, pool 3 (3 donors) (IL-2 2.5 ng/mL); assay: as above; settings: 72 h

For `S=P(N1CC1)(N1CC1)N1CC1` [Thio-TEPA] (max concentration tested 50000 nM), which “percent inhibition of viability” value ([1]; 5 nM) is on record?
Its value is -5.81%.

What about the “percent inhibition of viability” value ([1]; 50 nM) of the same compound?
The value was -5.71%.

What about the “percent inhibition of viability” value ([1]; 500 nM) of the same compound?
Its value is -4.89%.

And the “percent inhibition of viability” value ([1]; 5000 nM)?
The value was 3.45%.

What about the “percent inhibition of viability” value ([1]; 50000 nM) of the same compound?
Its value is 9%.

What about the “percent inhibition of viability” value (DERL-7 (IL-2 2.5 ng/mL) [2]; 5 nM) of the same compound?
Its value is 1.93%.

And the “percent inhibition of viability” value (DERL-7 (IL-2 2.5 ng/mL) [2]; 50 nM)?
Its value is 5.03%.

What about the “percent inhibition of viability” value (DERL-7 (IL-2 2.5 ng/mL) [2]; 500 nM) of the same compound?
The value was -0.04%.

And the “percent inhibition of viability” value (DERL-7 (IL-2 2.5 ng/mL) [2]; 5000 nM)?
The value was 1.45%.

What about the “percent inhibition of viability” value (DERL-7 (IL-2 2.5 ng/mL) [2]; 50000 nM) of the same compound?
The value was 3.25%.

And the “percent inhibition of viability” value (IMC-1 (IL-2 20 ng/mL) [3]; 5 nM)?
The value was -2.71%.

What about the “percent inhibition of viability” value (IMC-1 (IL-2 20 ng/mL) [3]; 50 nM) of the same compound?
The value was -4.91%.

And the “percent inhibition of viability” value (IMC-1 (IL-2 20 ng/mL) [3]; 500 nM)?
The value was -3.42%.

What about the “percent inhibition of viability” value (IMC-1 (IL-2 20 ng/mL) [3]; 5000 nM) of the same compound?
Its value is -4.6%.

What about the “percent inhibition of viability” value (IMC-1 (IL-2 20 ng/mL) [3]; 50000 nM) of the same compound?
Its value is 8.77%.

What about the “percent inhibition of viability” value (KAI3 (IL-2 2.5 ng/mL) [4]; 5 nM) of the same compound?
Its value is -3.61%.

And the “percent inhibition of viability” value (KAI3 (IL-2 2.5 ng/mL) [4]; 50 nM)?
The value was -4.29%.

And the “percent inhibition of viability” value (KAI3 (IL-2 2.5 ng/mL) [4]; 500 nM)?
The value was 12.8%.

What about the “percent inhibition of viability” value (KAI3 (IL-2 2.5 ng/mL) [4]; 5000 nM) of the same compound?
The value was 35.4%.

And the “percent inhibition of viability” value (KAI3 (IL-2 2.5 ng/mL) [4]; 50000 nM)?
Its value is 69.6%.

And the “percent inhibition of viability” value (KHYG-1 (IL-2 2.5 ng/mL) [5]; 5 nM)?
Its value is -7.42%.

And the “percent inhibition of viability” value (KHYG-1 (IL-2 2.5 ng/mL) [5]; 50 nM)?
Its value is -4.16%.

And the “percent inhibition of viability” value (KHYG-1 (IL-2 2.5 ng/mL) [5]; 500 nM)?
The value was 1.44%.

What about the “percent inhibition of viability” value (KHYG-1 (IL-2 2.5 ng/mL) [5]; 5000 nM) of the same compound?
The value was 6.58%.

What about the “percent inhibition of viability” value (KHYG-1 (IL-2 2.5 ng/mL) [5]; 50000 nM) of the same compound?
The value was 8.07%.

What about the “percent inhibition of viability” value (NK-92 (IL-2 2.5 ng/mL) [6]; 5 nM) of the same compound?
Its value is -3.47%.

And the “percent inhibition of viability” value (NK-92 (IL-2 2.5 ng/mL) [6]; 50 nM)?
The value was 8.15%.

And the “percent inhibition of viability” value (NK-92 (IL-2 2.5 ng/mL) [6]; 500 nM)?
The value was 14.3%.

What about the “percent inhibition of viability” value (NK-92 (IL-2 2.5 ng/mL) [6]; 5000 nM) of the same compound?
The value was 25.1%.

What about the “percent inhibition of viability” value (NK-92 (IL-2 2.5 ng/mL) [6]; 50000 nM) of the same compound?
Its value is 37.1%.

And the “percent inhibition of viability” value (NK-YS (IL-2 2.5 ng/mL) [7]; 5 nM)?
Its value is -1.57%.

And the “percent inhibition of viability” value (NK-YS (IL-2 2.5 ng/mL) [7]; 50 nM)?
The value was -3.69%.

What about the “percent inhibition of viability” value (NK-YS (IL-2 2.5 ng/mL) [7]; 500 nM) of the same compound?
Its value is 3%.

And the “percent inhibition of viability” value (NK-YS (IL-2 2.5 ng/mL) [7]; 5000 nM)?
Its value is 9.54%.

What about the “percent inhibition of viability” value (NK-YS (IL-2 2.5 ng/mL) [7]; 50000 nM) of the same compound?
The value was 24.2%.

And the “percent inhibition of viability” value (NKL (IL-2 2.5 ng/mL) [8]; 5 nM)?
Its value is -8.09%.

What about the “percent inhibition of viability” value (NKL (IL-2 2.5 ng/mL) [8]; 50 nM) of the same compound?
The value was 4.28%.

And the “percent inhibition of viability” value (NKL (IL-2 2.5 ng/mL) [8]; 500 nM)?
The value was 15.5%.

And the “percent inhibition of viability” value (NKL (IL-2 2.5 ng/mL) [8]; 5000 nM)?
Its value is 33.8%.

What about the “percent inhibition of viability” value (NKL (IL-2 2.5 ng/mL) [8]; 50000 nM) of the same compound?
Its value is 72.4%.

And the “percent inhibition of viability” value (SNK-6 (IL-2 2.5 ng/mL) [9]; 5 nM)?
The value was -0.04%.

What about the “percent inhibition of viability” value (SNK-6 (IL-2 2.5 ng/mL) [9]; 50 nM) of the same compound?
Its value is -12.4%.

What about the “percent inhibition of viability” value (SNK-6 (IL-2 2.5 ng/mL) [9]; 500 nM) of the same compound?
The value was -4.8%.

What about the “percent inhibition of viability” value (SNK-6 (IL-2 2.5 ng/mL) [9]; 5000 nM) of the same compound?
Its value is -5.86%.

What about the “percent inhibition of viability” value (SNK-6 (IL-2 2.5 ng/mL) [9]; 50000 nM) of the same compound?
Its value is 41.2%.

What about the “percent inhibition of viability” value (YT (IL-2 2.5 ng/mL) [10]; 5 nM) of the same compound?
Its value is -4.88%.

And the “percent inhibition of viability” value (YT (IL-2 2.5 ng/mL) [10]; 50 nM)?
Its value is -5.74%.

What about the “percent inhibition of viability” value (YT (IL-2 2.5 ng/mL) [10]; 500 nM) of the same compound?
The value was 1.43%.

And the “percent inhibition of viability” value (YT (IL-2 2.5 ng/mL) [10]; 5000 nM)?
Its value is 6.47%.

And the “percent inhibition of viability” value (YT (IL-2 2.5 ng/mL) [10]; 50000 nM)?
The value was 8.31%.

What about the “percent inhibition of viability” value ([11]; 5 nM) of the same compound?
Its value is 0.27%.

What about the “percent inhibition of viability” value ([11]; 50 nM) of the same compound?
Its value is 11.7%.

What about the “percent inhibition of viability” value ([11]; 500 nM) of the same compound?
The value was 6.98%.

And the “percent inhibition of viability” value ([11]; 5000 nM)?
The value was 8.81%.

And the “percent inhibition of viability” value ([11]; 50000 nM)?
The value was 2.16%.

And the “percent inhibition of viability” value ([12]; 5 nM)?
The value was -8.22%.

And the “percent inhibition of viability” value ([12]; 50 nM)?
Its value is 7.58%.

And the “percent inhibition of viability” value ([12]; 500 nM)?
Its value is 6.34%.

What about the “percent inhibition of viability” value ([12]; 5000 nM) of the same compound?
The value was 14.9%.

And the “percent inhibition of viability” value ([12]; 50000 nM)?
The value was 17.1%.

And the “percent inhibition of viability” value ([13]; 5 nM)?
Its value is -1.52%.

What about the “percent inhibition of viability” value ([13]; 50 nM) of the same compound?
Its value is 9.19%.

What about the “percent inhibition of viability” value ([13]; 500 nM) of the same compound?
The value was 11.7%.

What about the “percent inhibition of viability” value ([13]; 5000 nM) of the same compound?
The value was 8.43%.

What about the “percent inhibition of viability” value ([13]; 50000 nM) of the same compound?
Its value is 19.8%.

And the “percent inhibition of viability” value ([14]; 5 nM)?
The value was -5.53%.

And the “percent inhibition of viability” value ([14]; 50 nM)?
The value was 7.66%.

And the “percent inhibition of viability” value ([14]; 500 nM)?
Its value is 3.04%.

And the “percent inhibition of viability” value ([14]; 5000 nM)?
Its value is 4.82%.

What about the “percent inhibition of viability” value ([14]; 50000 nM) of the same compound?
Its value is 3.08%.

And the drug sensitivity score [15]?
The drug sensitivity score was 0.

And the drug sensitivity score (DERL-7 (IL-2 2.5 ng/mL) [16])?
Its drug sensitivity score is 0.

What about the drug sensitivity score (IMC-1 (IL-2 20 ng/mL) [17]) of the same compound?
The drug sensitivity score was 0.

And the drug sensitivity score (KAI3 (IL-2 2.5 ng/mL) [18])?
The drug sensitivity score was 8.32.

What about the drug sensitivity score (KHYG-1 (IL-2 2.5 ng/mL) [19]) of the same compound?
Its drug sensitivity score is 0.

What about the drug sensitivity score (NK-92 (IL-2 2.5 ng/mL) [20]) of the same compound?
Its drug sensitivity score is 5.84.

And the drug sensitivity score (NK-YS (IL-2 2.5 ng/mL) [21])?
Its drug sensitivity score is 1.65.

And the drug sensitivity score (NKL (IL-2 2.5 ng/mL) [22])?
Its drug sensitivity score is 8.54.

What about the drug sensitivity score (SNK-6 (IL-2 2.5 ng/mL) [23]) of the same compound?
The drug sensitivity score was 1.69.

And the drug sensitivity score (YT (IL-2 2.5 ng/mL) [24])?
Its drug sensitivity score is 0.

What about the drug sensitivity score [25] of the same compound?
Its drug sensitivity score is 0.

What about the drug sensitivity score [26] of the same compound?
The drug sensitivity score was 1.68.

What about the drug sensitivity score [27] of the same compound?
Its drug sensitivity score is 1.52.

What about the drug sensitivity score [28] of the same compound?
The drug sensitivity score was 0.
